{"source": "patent EP0840727B1", "about": "“3-HYDROXY-2(1H)-[…] AGENTS” (priority 1995, dated 1997)", "key": {"[1]": {"assay": "Solubility in water", "type": "physicochemical", "settings": "in words"}, "[2]": {"assay": "Promoting excretion of 241Am(III) in mice by injected ligand", "type": "in vivo", "settings": "Am(III), ligand 30 mmol.kg-1 i.p at 3 to 5 min after actinide i.v., kill at 24 h", "excerpt": "(§1) Animal studies were completed using methods detailed in Radiation Protection Dosimetry, in press, P. W. Durbin et al., \"In Vivo Chelation of Am(III), Pu(IV), Np(V) and U(VI) in Mice by TREN-(Me-3,2-HOPO)\"; Radiation Protection Dosimetry, 17, No. 1, 1989, p. 351, P. W. Durbin et al., \"Removal of ^238Pu(IV) from Mice by Polycatechoylate, -Hydroxamate or -Hydroxypyridinonate Ligands\"; Radiation Research, 99, 1984, p. 85, P. W. Durbin et al., \"Specific Sequestering Agents for the Actinides ...\"; Radiation Research, 99, 1984, p. 106, P. W. Durbin et al., \"Removal of Pu and Am from Beagles and Mice ...\"; Radiation Research, 81, 1980, p. 170, R. D. Lloyd et al., and P. W. Durbin et al., \"Specific Sequestering Agents for the Actinides ...\". The foregoing articles are hereby incorporated by reference.\nRadionuclides used in the animal studies came from a variety of sources. However, they can be purchased commercially. The ^238Pu(IV) citrate and ^241Am(III) citrate solutions were prepared for animal injection by 8- to 10-fold dilution with 0.14M NaCl (pH 4) of concentrated stock solutions (0.08M sodium citrate buffer) that had been held in frozen storage at Lawrence Berkeley Laboratory (hereinafter LBL) for several years. [The ^238Pu(IV) was originally obtained from D. R. Atherton at the University of Utah Radiobiology Laboratory, Salt Lake City. The ^241Am(III) solution had been obtained many years earlier from the LBL Actinide Chemistry group.]\n(§2) One of the comparative chelating agents TREN-Me-3,2-HOPO, was also tested for effectiveness in promoting excretion of ^241Am(III), ^237Np(V), and ^232U(VI) by injection into mice, as follows: Mice, in groups of five, each received an intravenous injection of (a) 1100 Bq of ^241AM(III) in 0.2 mL of citrate buffer, (b) 150 Bq of ^232UO2Cl2 plus 3.6 mg of ^235UO2Cl2 in 0.2 mL of saline, or (c) 200 Bq of ^237NpO2Cl (7.5 mg of ^237NpO2Cl) in 0.2 mL of saline. Three to five minutes later, […] of TREN-Me-3,2-HOPO was injected intraperitoneally in 0.5 mL of saline. The mice were killed 24 hours after the actinide injection, frozen, and dissected after partial thawing. The skeleton, soft tissues, and separated excreta were radioanalyzed by counting the ^241Am gamma rays, or the alpha particles emitted by ^237Np or ^232U (and its ingrowing daughters). Removal of those actinides from mice by injected TREN-Me-3,2-HOPO is summarized in Table 5, which also includes data for mice similarly treated with CaNa3-DTPA and for actinide-injected controls. […] The structure of Am(III)-TREN-Me-3,2-HOPO is considered to resemble that of the Gd(III) complexes (see example 20). Complexation of the fraction of Np(V) that is reduced in vivo to Np(IV) is considered to resemble that of Pu(IV). Complexation of U(VI) is considered to take place through binding to UO2^2+."}, "[3]": {"assay": "Promoting excretion of 237Np(V) in mice by injected ligand", "type": "in vivo", "settings": "Np(V), ligand 30 mmol.kg-1 i.p at 3 to 5 min after actinide i.v., kill at 24 h", "excerpt": "as §1\nThe ^237Np(V) was obtained from J. Bucher of the LBL Actinide Chemistry group as NpO2Cl in 0.1 M HCl. It was diluted to the desired radioactivity concentration in 0.14M NaCl and the pH was adjusted to about 4.5 with NaOH just before use.\nas §2"}, "[4]": {"assay": "Promoting excretion of U(VI) in mice by injected ligand", "type": "in vivo", "settings": "U(VI), ligand 30 mmol.kg-1 i.p at 3 to 5 min after actinide i.v., kill at 24 h", "excerpt": "as §1\nThe ^232U was obtained from the Isotope Products Laboratory, Burbank, CA, and ^234,235U was obtained as U metal from long-held LBL storage. The two U sources were combined and dissolved in 6N HNO3, dried, and redissolved in 0.1 N HCl. The daughter radioactivities were removed by elution from a Dowex-50X4 column (22 cm length, 0.7 cm diameter, 1.5 mL·min^-1 flow rate) with 3.2N HCl. The U fractions (previously identified by a trial run with ^234,235U alone) were combined, dried, and redissolved in 0.14M NaCl at pH 5.5.\nas §2"}, "[5]": {"settings": "ligand 30 µmol kg^-1 ip at 1 h after iv ^238Pu(IV) citrate, kill at 24 h, reported previously, cited from earlier work"}, "[6]": {"settings": "Fe(III) chelation; cited from earlier work"}}, "note": "Marks after values point to notes of the source that are not given here.", "data": [{"molecule": "CCCNC(=O)c1ccn(C)c(=O)c1O", "note": "[3-hydroxy-1-methyl-4(1-propylcarbamoyl)-2(1H)-pyridinone]", "values": [{"measurement": "solubility in water", "setting": "[1]", "value": "very soluble in water"}]}, {"molecule": "O=C([O-])CN(CCN(CC(=O)[O-])CC(=O)[O-])CCN(CC(=O)[O-])CC(=O)[O-].[Ca+2].[Na+].[Na+].[Na+]", "note": "[CaNa3-DTPA, reference compound]", "values": [{"measurement": "percent of injected actinide ± SD at 24 h, tissues: liver", "setting": "[2]", "value": "13 ± 1.5^d percent of injected actinide"}, {"measurement": "percent of injected actinide ± SD at 24 h, tissues: skeleton", "setting": "[2]", "value": "8.5 ± 0.9^d percent of injected actinide"}, {"measurement": "percent of injected actinide ± SD at 24 h, tissues: soft tissue", "setting": "[2]", "value": "1.9 ± 0.3^d percent of injected actinide"}, {"measurement": "percent of injected actinide ± SD at 24 h, whole body", "setting": "[2]", "value": "24 ± 1.3^d percent of injected actinide"}, {"measurement": "percent of injected actinide at 24 h, excreta: feces and GI contents", "setting": "[2]; pooled", "value": "8.0% of injected actinide"}, {"measurement": "percent of injected actinide at 24 h, excreta: urine 0-24 h", "setting": "[2]; pooled", "value": "68% of injected actinide"}, {"measurement": "percent of injected actinide at 24 h, tissues: kidneys", "setting": "[2]; pooled", "value": "0.4% of injected actinide"}, {"measurement": "percent of injected actinide ± SD at 24 h, tissues: liver", "setting": "[3]", "value": "14 ± 5.7% of injected actinide"}, {"measurement": "percent of injected actinide ± SD at 24 h, tissues: skeleton", "setting": "[3]", "value": "40 ± 4.4% of injected actinide"}, {"measurement": "percent of injected actinide ± SD at 24 h, tissues: soft tissue", "setting": "[3]", "value": "3.5 ± 0.9% of injected actinide"}, {"measurement": "percent of injected actinide ± SD at 24 h, whole body", "setting": "[3]", "value": "58 ± 8.0% of injected actinide"}, {"measurement": "percent of injected actinide at 24 h, excreta: feces and GI contents", "setting": "[3]; pooled", "value": "1.5% of injected actinide"}, {"measurement": "percent of injected actinide at 24 h, excreta: urine 0-24 h", "setting": "[3]; pooled", "value": "40% of injected actinide"}, {"measurement": "percent of injected actinide at 24 h, tissues: kidneys", "setting": "[3]; pooled", "value": "1.3% of injected actinide"}, {"measurement": "percent of injected actinide ± SD at 24 h, tissues: kidneys", "setting": "[4]", "value": "17 ± 2.8% of injected actinide"}, {"measurement": "percent of injected actinide ± SD at 24 h, tissues: skeleton", "setting": "[4]", "value": "19 ± 3.0% of injected actinide"}, {"measurement": "percent of injected actinide ± SD at 24 h, tissues: soft tissue", "setting": "[4]", "value": "2.2 ± 0.1% of injected actinide"}, {"measurement": "percent of injected actinide ± SD at 24 h, whole body", "setting": "[4]", "value": "38 ± 0.7% of injected actinide"}, {"measurement": "percent of injected actinide at 24 h, combined excreta", "setting": "[4]; feces, GI contents and urine combined", "value": "62^f percent of injected actinide"}, {"measurement": "percent of injected actinide ± SD at 24 h, tissues: liver", "setting": "[4]; livers of some groups pooled", "value": "1.0^c percent of injected actinide"}, {"measurement": "percent of injected ^238Pu at 24 h, excreta: feces and GI contents", "setting": "[5]; pooled samples", "value": "5.1% of injected ^238Pu"}, {"measurement": "percent of injected ^238Pu at 24 h, excreta: urine 0-24 h", "setting": "[5]; pooled samples", "value": "61% of injected ^238Pu"}, {"measurement": "percent of injected ^238Pu ± SD at 24 h, tissues: liver", "setting": "[5]", "value": "17 ± 4.0% of injected ^238Pu"}, {"measurement": "percent of injected ^238Pu ± SD at 24 h, tissues: skeleton", "setting": "[5]", "value": "12 ± 2.3% of injected ^238Pu"}, {"measurement": "percent of injected ^238Pu ± SD at 24 h, tissues: soft tissue", "setting": "[5]", "value": "3.5 ± 1.6% of injected ^238Pu"}, {"measurement": "percent of injected ^238Pu ± SD at 24 h, whole body", "setting": "[5]", "value": "33 ± 6.6% of injected ^238Pu"}]}, {"molecule": "O=C(N[C@H]1COC(=O)[C@@H](NC(=O)c2cccc(O)c2O)COC(=O)[C@@H](NC(=O)c2cccc(O)c2O)COC1=O)c1cccc(O)c1O", "note": "[enterobacun]", "values": [{"measurement": "formation constant Kf", "setting": "[6]", "value": "10^49"}, {"measurement": "pM", "setting": "[6]", "value": 35.5}]}]}
